Assay results as given in patent EP4745135A1 (Gluetacs Therapeutics (Shanghai) Co., Ltd., priority 2023, dated 2025).

Columns and labels:
[1] = target: T1, human Cereblon WT GST-tagged protein (Homo sapiens, UniProt Q96SW2); test: CRBN-binding affinity, HTRF (CEREBLON BINDING kit); settings: for IC50: CRBN binding, HTRF, 3 hours at room temperature, read-out: HTRF IC50; for inhibition at 0.5 µM: read-out: Inhibition Rate at 0.5 µM (%); for inhibition at 2 µM: read-out: Inhibition Rate at 2 µM (%)
T1 construct: purchased CISBIO 64BDCRBNPEH
T1 sequence (Q96SW2 whole entry): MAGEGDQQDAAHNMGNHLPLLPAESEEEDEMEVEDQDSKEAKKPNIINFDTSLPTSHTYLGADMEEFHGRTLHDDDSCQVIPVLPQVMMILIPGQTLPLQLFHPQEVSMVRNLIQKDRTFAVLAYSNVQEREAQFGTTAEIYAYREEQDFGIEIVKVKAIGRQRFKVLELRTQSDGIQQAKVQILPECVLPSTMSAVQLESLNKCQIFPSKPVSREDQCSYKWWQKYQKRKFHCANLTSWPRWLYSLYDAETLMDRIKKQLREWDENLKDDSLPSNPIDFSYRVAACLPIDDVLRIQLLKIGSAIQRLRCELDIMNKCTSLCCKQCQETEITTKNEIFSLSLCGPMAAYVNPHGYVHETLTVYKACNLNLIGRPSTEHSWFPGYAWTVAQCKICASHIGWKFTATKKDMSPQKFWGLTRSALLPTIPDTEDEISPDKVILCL

[2] = target: T2, IKZF3 (Homo sapiens, UniProt Q96SW2+Q9UKT9); test: Western blot, degradation of substrate protein in hPBMCs; type: cell-based
T2 construct: effects of the compounds of the present disclosure on the expression of target proteins in cells; endogenous in cells; host or cells: human PBMCs (Milecell Biotechnologies)
T2 sequence (Q9UKT9 whole entry): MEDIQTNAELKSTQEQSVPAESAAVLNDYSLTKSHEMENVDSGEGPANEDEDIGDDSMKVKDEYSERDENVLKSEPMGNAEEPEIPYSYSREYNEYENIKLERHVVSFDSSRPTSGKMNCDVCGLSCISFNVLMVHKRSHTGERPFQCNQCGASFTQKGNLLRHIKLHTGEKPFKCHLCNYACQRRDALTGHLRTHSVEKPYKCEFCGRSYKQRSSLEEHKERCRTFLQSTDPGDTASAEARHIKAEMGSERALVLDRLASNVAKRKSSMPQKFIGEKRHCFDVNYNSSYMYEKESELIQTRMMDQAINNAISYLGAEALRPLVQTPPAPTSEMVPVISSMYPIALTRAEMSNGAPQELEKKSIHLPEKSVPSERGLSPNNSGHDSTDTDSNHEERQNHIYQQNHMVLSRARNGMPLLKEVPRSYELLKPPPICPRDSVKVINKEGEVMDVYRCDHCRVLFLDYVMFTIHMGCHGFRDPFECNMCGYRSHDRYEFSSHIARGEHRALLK
T2 sequence (Q96SW2 whole entry): as the sequence (Q96SW2 whole entry) above
T2 sequence (Q16531 whole entry partner): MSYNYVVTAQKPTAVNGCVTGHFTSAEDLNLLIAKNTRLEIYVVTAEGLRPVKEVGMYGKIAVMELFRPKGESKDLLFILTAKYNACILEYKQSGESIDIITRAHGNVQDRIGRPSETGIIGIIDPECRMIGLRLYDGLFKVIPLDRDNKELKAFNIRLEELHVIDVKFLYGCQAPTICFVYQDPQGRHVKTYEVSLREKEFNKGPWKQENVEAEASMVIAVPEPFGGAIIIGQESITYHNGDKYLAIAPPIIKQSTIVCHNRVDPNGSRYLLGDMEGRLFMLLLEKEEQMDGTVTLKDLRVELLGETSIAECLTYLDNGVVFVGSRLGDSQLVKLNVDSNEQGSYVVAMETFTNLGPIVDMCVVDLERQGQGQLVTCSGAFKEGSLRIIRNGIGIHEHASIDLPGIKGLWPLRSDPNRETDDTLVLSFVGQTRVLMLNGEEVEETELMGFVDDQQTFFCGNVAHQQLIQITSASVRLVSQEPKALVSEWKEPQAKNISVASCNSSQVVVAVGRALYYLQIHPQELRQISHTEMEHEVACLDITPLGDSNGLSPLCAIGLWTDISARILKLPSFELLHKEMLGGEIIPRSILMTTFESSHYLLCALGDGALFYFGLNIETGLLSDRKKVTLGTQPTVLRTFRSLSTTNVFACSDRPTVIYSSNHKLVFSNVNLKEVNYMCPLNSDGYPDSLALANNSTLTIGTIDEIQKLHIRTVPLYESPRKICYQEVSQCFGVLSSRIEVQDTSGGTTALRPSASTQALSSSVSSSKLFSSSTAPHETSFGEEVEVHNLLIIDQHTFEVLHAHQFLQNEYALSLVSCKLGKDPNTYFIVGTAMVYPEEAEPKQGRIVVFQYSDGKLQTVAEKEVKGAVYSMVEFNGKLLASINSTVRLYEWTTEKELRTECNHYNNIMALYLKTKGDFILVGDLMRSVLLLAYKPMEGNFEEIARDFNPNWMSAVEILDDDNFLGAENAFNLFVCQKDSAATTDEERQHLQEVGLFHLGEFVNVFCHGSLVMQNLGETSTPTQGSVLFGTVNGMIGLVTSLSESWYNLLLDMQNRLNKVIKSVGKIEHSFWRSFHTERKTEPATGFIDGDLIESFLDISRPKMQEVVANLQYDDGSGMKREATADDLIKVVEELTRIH
Procedure: (§1) Conventional Western blot assay was performed to evaluate the effects of the compounds of the present disclosure on the expression of target proteins in cells. • (1) Cell Seeding and Protein Harvesting: Human peripheral blood mononuclear cells (hPBMCs) at a density of 1×10^6 cells/mL were thawed according to the PBMC Recovery Protocol (Milecell Biotechnologies Inc, Shanghai). […] After 24 hours of compounds treatment, cells were harvested and lysed in RIPA protein lysate containing protease inhibitors on ice for 30 min, followed by centrifugation. The supernatant was aspirated as the extracted total cell protein. The protein concentration of the supernatant was determined using the conventional BCA (Bicinchoninic Acid) assay. • (2) To the collected supernatant, 5X SDS sample loading buffer was added, followed by denaturation at 95°C for 5 minutes. The denatured samples were then separated by SDS-PAGE electrophoresis on a polyacrylamide gel, transferred onto a nitrocellulose membrane (0.45 µm NC membrane), blocked with blocking buffer at room temperature for 1 hour, and subjected to antibody incubation and development procedures according to the antibody manufacturer's instructions (Cell Signaling Technology Company).
(§2) Half-Maximal Degradation Concentration value (the drug concentration required for degrading proteins by 50%, abbreviated as DC50) reads method: comparing the grayscale values of Western blot bands from drug-treated samples with those from blank DMSO-treated controls, and identifying the drug concentration range at which the grayscale value is half that of the DMSO-treated control bands.
(§3) DC50 values can be calculated using ImageJ software to measure grayscale values of Western blot bands from drug-treated samples. The concentration-response curve is fitted to estimate the drug concentration corresponding to half the grayscale value.
(§4) Target protein remaining (%) refers to the percentage of target protein remaining in cells after treatment with protein degrader compounds.
(§5) Calculation method for target protein remaining (%): Use ImageJ software to measure grayscale values of Western blot bands from drug (protein degrader)-treated samples. The grayscale value of drug-treated bands is divided by that of internal control protein bands, and the resulting quotient is normalized to obtain the relative percentage of remaining target protein after protein degrader treatment.
(§6) Target protein degradation rate (%) = 1−target protein remaining (%). [formula]

[3] = target: T3, IKZF1 (Homo sapiens, UniProt Q13422+Q96SW2); test: as above; type: cell-based
T3 construct: effects of the compounds of the present disclosure on the expression of target proteins in cells; endogenous in cells; host or cells: human PBMCs (Milecell Biotechnologies)
T3 sequence (Q13422 whole entry): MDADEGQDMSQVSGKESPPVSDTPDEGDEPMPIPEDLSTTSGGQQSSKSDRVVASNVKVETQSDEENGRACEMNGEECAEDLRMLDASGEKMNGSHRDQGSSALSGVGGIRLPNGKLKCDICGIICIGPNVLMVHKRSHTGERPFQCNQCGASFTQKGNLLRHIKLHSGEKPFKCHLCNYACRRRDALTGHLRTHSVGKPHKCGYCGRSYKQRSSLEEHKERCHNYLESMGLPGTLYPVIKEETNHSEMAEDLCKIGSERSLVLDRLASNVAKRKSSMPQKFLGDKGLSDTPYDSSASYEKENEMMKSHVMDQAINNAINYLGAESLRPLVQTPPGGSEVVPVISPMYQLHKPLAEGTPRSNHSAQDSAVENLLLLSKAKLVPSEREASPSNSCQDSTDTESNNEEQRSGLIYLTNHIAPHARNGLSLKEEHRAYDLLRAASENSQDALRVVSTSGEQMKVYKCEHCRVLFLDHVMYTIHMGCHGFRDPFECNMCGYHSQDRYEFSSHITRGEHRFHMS
T3 sequence (Q96SW2 whole entry): as the sequence (Q96SW2 whole entry) above
T3 sequence (Q16531 whole entry partner): as the sequence (Q16531 whole entry partner) above
Procedure: as §1, §2, §3, §4, §5, §6

[4] = target: T4, WEE1 (Homo sapiens, UniProt P30291+Q96SW2); test: as above; type: cell-based
T4 construct: effects of the compounds of the present disclosure on the expression of target proteins in cells; endogenous in cells; host or cells: human PBMCs (Milecell Biotechnologies)
T4 sequence (P30291 whole entry): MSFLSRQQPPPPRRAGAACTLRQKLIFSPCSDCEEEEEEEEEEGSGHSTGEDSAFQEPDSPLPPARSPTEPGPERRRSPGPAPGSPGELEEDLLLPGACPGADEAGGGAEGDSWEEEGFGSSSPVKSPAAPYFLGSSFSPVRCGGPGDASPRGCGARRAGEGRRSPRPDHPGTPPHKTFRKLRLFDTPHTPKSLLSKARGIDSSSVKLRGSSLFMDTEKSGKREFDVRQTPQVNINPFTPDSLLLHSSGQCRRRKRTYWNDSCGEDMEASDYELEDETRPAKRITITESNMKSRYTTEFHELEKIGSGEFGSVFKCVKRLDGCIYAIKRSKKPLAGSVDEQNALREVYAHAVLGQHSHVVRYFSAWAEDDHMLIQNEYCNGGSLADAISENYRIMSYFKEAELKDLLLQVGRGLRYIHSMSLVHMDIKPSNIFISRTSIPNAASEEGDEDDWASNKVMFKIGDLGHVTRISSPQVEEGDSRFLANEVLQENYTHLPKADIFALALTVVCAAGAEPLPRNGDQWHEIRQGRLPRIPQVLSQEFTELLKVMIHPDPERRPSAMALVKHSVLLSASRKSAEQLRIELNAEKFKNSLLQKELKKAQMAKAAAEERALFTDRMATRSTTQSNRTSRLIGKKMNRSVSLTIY
T4 sequence (Q96SW2 whole entry): as the sequence (Q96SW2 whole entry) above
T4 sequence (Q16531 whole entry partner): as the sequence (Q16531 whole entry partner) above
Procedure: as §1, §2, §3, §4, §5, §6

[5] = target: T5, CK1α (Homo sapiens, UniProt P48729+Q96SW2); test: as above; type: cell-based
T5 construct: effects of the compounds of the present disclosure on the expression of target proteins in cells; endogenous in cells; host or cells: human PBMCs (Milecell Biotechnologies)
T5 sequence (P48729 whole entry): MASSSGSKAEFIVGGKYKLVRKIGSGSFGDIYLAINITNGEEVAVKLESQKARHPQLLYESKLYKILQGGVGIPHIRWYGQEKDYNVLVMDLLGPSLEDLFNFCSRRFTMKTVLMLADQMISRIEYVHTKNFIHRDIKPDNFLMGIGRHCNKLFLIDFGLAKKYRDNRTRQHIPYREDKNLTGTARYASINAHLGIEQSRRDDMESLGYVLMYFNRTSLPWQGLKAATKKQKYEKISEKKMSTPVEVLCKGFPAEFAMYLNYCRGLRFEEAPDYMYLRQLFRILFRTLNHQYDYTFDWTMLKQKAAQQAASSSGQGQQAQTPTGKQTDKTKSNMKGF
T5 sequence (Q96SW2 whole entry): as the sequence (Q96SW2 whole entry) above
T5 sequence (Q16531 whole entry partner): as the sequence (Q16531 whole entry partner) above
Procedure: as §1, §2, §3, §4, §5, §6

[6] = target: T6, IKZF2 (Homo sapiens, UniProt Q96SW2+Q9UKS7); test: as above; type: cell-based
T6 construct: effects of the compounds of the present disclosure on the expression of target proteins in cells; endogenous in cells; host or cells: human PBMCs (Milecell Biotechnologies)
T6 sequence (Q9UKS7 whole entry): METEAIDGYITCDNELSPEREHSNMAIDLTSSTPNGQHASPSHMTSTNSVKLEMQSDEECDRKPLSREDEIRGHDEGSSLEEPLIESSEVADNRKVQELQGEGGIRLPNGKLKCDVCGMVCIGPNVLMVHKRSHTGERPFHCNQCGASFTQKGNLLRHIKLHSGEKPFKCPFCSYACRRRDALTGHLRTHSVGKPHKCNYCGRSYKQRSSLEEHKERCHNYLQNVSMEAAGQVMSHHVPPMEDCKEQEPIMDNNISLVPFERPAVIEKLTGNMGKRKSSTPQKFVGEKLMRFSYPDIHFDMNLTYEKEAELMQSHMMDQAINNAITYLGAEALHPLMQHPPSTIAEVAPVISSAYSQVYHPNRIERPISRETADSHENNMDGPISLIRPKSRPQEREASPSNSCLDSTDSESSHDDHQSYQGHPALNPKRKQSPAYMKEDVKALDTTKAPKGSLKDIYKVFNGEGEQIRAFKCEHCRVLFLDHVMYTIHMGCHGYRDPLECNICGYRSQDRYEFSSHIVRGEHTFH
T6 sequence (Q96SW2 whole entry): as the sequence (Q96SW2 whole entry) above
T6 sequence (Q16531 whole entry partner): as the sequence (Q16531 whole entry partner) above
Procedure: as §1, §2, §3, §4, §5, §6

[7] = test system: GSPT1; test: as above; type: cell-based, Human
[8] = Western blot, 24 hours of compound treatment, compounds tested at 50 nM and 500 nM (concentration for the table not stated)
[9] = 24 hours treatment, compounds at 50 nM and 500 nM (concentration behind the class not stated)

| Compound | IC50 [1] [nM] | IKZF3 substrate protein remaining % [2, 8] | IKZF 1 substrate protein remaining % [3, 8] | Wee1 substrate protein remaining % [4, 8] | CK1α substrate protein remaining % [5, 8] | IKZF2 substrate protein remaining % [6, 8] | GSPT1 substrate protein remaining % [7, 8] | IKZF3 substrate protein remaining % [2, 9] | IKZF 1 substrate protein remaining % [3, 9] | Wee1 substrate protein remaining % [4, 9] | CK1α substrate protein remaining % [5, 9] | IKZF2 substrate protein remaining % [6, 9] | GSPT1 substrate protein remaining % [7, 9] | inhibition at 0.5 µM [1] [%] | inhibition at 2 µM [1] [%] |
| --- | --- | --- | --- | --- | --- | --- | --- | --- | --- | --- | --- | --- | --- | --- | --- |
| O=C1CCC(N2Cc3cc(CN4CC=C(c5cccc6cnccc56)CC4)ccc3C2=S)C(=O)N1 (centres unmarked) [GT-05246, 3-(5-((4-(isoquinolin-5-yl)-3,6-dihydropyridin-1(2H)-yl)methyl)-1-thioxoisoindolin-2-yl)piperidine-2,6-dione] | 100 to 500 | B (80%< substrate protein remaining %≤ 100%) | B (80%< substrate protein remaining %≤ 100%) | A (0% ≤ substrate protein remaining % ≤ 80%) | B (80%< substrate protein remaining %≤ 100%) | B (80%< substrate protein remaining %≤ 100%) | A (0% ≤ substrate protein remaining % ≤ 80%) | – | – | – | – | – | – | – | – |
| O=C1CCC(N2Cc3ccccc3C2=S)C(=O)N1 (centres unmarked) [GT-05563, 3-(1-thioxoisoindolin-2-yl)piperidine-2,6-dione] | < 100 | – | – | – | – | – | – | A (0% ≤ substrate protein remaining % ≤ 80%) | A (0% ≤ substrate protein remaining % ≤ 80%) | A (0% ≤ substrate protein remaining % ≤ 80%) | B (80%< substrate protein remaining %≤ 100%) | A (0% ≤ substrate protein remaining % ≤ 80%) | B (80%< substrate protein remaining %≤ 100%) | – | – |
| O=C1CCC(N2Cc3ccc(CO)cc3C2=S)C(=O)N1 (centres unmarked) [GT-05566, 3-(6-(hydroxymethyl)-1-thioxoisoindolin-2-yl)piperidine-2,6-dione] | 100 to 500 | – | – | – | – | – | – | A (0% ≤ substrate protein remaining % ≤ 80%) | A (0% ≤ substrate protein remaining % ≤ 80%) | A (0% ≤ substrate protein remaining % ≤ 80%) | B (80%< substrate protein remaining %≤ 100%) | A (0% ≤ substrate protein remaining % ≤ 80%) | B (80%< substrate protein remaining %≤ 100%) | – | – |
| O=C1CCC(N2Cc3cc(CO)ccc3C2=S)C(=O)N1 (centres unmarked) [GT-06977, 3-(5-(hydroxymethyl)-1-thioxoisoindolin-2-yl)piperidine-2,6-dione] | < 100 | – | – | – | – | – | – | A (0% ≤ substrate protein remaining % ≤ 80%) | B (80%< substrate protein remaining %≤ 100%) | A (0% ≤ substrate protein remaining % ≤ 80%) | B (80%< substrate protein remaining %≤ 100%) | B (80%< substrate protein remaining %≤ 100%) | B (80%< substrate protein remaining %≤ 100%) | – | – |
| O=C1CCC(N2Cc3cc(CN4CCN(C(c5ccccc5)c5cccnc5)CC4)ccc3C2=S)C(=O)N1 (centres unmarked) [GT-07732, 3-(5-((4-(phenyl(pyridin-3-yl)methyl)piperazin-1-yl)methyl)-1-thioxoisoindolin-2-yl)piperidine-2,6-dione] | – | A (0% ≤ substrate protein remaining % ≤ 80%) | B (80%< substrate protein remaining %≤ 100%) | A (0% ≤ substrate protein remaining % ≤ 80%) | B (80%< substrate protein remaining %≤ 100%) | B (80%< substrate protein remaining %≤ 100%) | A (0% ≤ substrate protein remaining % ≤ 80%) | – | – | – | – | – | – | 53 to 60 | 80 to 100 |
| O=C1CCC(N2Cc3cc(CN4CCN(C(c5ccccc5)c5ccncc5)CC4)ccc3C2=S)C(=O)N1 (centres unmarked) [GT-07733, 3-(5-((4-(phenyl(pyridin-4-yl)methyl)piperazin-1-yl)methyl)-1-thioxoisoindolin-2-yl)piperidine-2,6-dione] | – | A (0% ≤ substrate protein remaining % ≤ 80%) | B (80%< substrate protein remaining %≤ 100%) | A (0% ≤ substrate protein remaining % ≤ 80%) | B (80%< substrate protein remaining %≤ 100%) | B (80%< substrate protein remaining %≤ 100%) | A (0% ≤ substrate protein remaining % ≤ 80%) | – | – | – | – | – | – | 60 to 80 | 80 to 100 |
| O=C1CCC(N2Cc3cc(CN4CCN(C(c5ccccn5)c5ccccn5)CC4)ccc3C2=S)C(=O)N1 (centres unmarked) [GT-07734, 3-(5-((4-(di(pyridin-2-yl)methyl)piperazin-1-yl)methyl)-1-thioxoisoindolin-2-yl)piperidine-2,6-dione] | – | A (0% ≤ substrate protein remaining % ≤ 80%) | B (80%< substrate protein remaining %≤ 100%) | A (0% ≤ substrate protein remaining % ≤ 80%) | B (80%< substrate protein remaining %≤ 100%) | B (80%< substrate protein remaining %≤ 100%) | A (0% ≤ substrate protein remaining % ≤ 80%) | – | – | – | – | – | – | 60 to 80 | 80 to 100 |
| O=C1CCC(N2Cc3cc(CN4CCN(C(c5cccnc5)c5cccnc5)CC4)ccc3C2=S)C(=O)N1 (centres unmarked) [GT-07735, 3-(5-((4-(di(pyridin-3-yl)methyl)piperazin-1-yl)methyl)-1-thioxoisoindolin-2-yl)piperidine-2,6-dione] | – | A (0% ≤ substrate protein remaining % ≤ 80%) | B (80%< substrate protein remaining %≤ 100%) | A (0% ≤ substrate protein remaining % ≤ 80%) | B (80%< substrate protein remaining %≤ 100%) | B (80%< substrate protein remaining %≤ 100%) | A (0% ≤ substrate protein remaining % ≤ 80%) | – | – | – | – | – | – | 53 to 60 | 80 to 100 |
| O=C1CCC(N2Cc3cc(CN4CCN(C(c5ccc(Cl)cc5)c5ccc(Cl)cc5)CC4)ccc3C2=S)C(=O)N1 (centres unmarked) [GT-07737, 3-(5-((4-(bis(4-chlorophenyl)methyl)piperazin-1-yl)methyl)-1-thioxoisoindolin-2-yl)piperidine-2,6-dione] | – | A (0% ≤ substrate protein remaining % ≤ 80%) | A (0% ≤ substrate protein remaining % ≤ 80%) | B (80%< substrate protein remaining %≤ 100%) | B (80%< substrate protein remaining %≤ 100%) | A (0% ≤ substrate protein remaining % ≤ 80%) | A (0% ≤ substrate protein remaining % ≤ 80%) | – | – | – | – | – | – | 30 to 40 | 53 to 60 |
